# Read-outs that look alike come from different tables or passages of the source.
# Assays:
# [1] = biological target: T1, cloned human M2 receptor (human Muscarinic receptor subtype 2) (Homo sapiens, UniProt P08172); assay: hM2 receptor GTPγS binding; type: biochemical; conditions: CHO cell membranes expressing hM2, [35S]GTPγS binding
# T1 construct: purchased Perkin-Elmer RBHM2M; host or cells: Chinese hamster ovary cells (CHO) membranes
# T1 sequence (P08172 1-466): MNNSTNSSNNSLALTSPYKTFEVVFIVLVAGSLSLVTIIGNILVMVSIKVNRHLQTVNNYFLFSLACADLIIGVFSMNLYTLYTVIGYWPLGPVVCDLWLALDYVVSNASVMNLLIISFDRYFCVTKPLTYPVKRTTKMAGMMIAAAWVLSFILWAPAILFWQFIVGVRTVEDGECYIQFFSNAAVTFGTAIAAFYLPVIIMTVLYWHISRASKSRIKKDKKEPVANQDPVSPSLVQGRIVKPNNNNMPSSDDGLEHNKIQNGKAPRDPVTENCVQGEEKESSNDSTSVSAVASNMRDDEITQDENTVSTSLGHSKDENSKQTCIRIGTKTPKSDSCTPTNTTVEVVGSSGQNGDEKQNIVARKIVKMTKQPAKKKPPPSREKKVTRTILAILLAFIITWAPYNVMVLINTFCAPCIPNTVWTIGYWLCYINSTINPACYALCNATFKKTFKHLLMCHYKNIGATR
# How it was run: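 CHO-cell membranes expressing human M2 receptor, scintillation-bead [35S]GTPγS binding (0.4 nM) with 12.5 μM GDP, pH 7.4 Hepes buffer, 60 min at room temperature. Agonism: stimulation vs 30 μM acetylcholine maximum; antagonism: reversal of 2 μM acetylcholine stimulation. EC50/IC50/Emax from 10-point sigmoidal fits.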
# [2] = biological target: T2, cloned human M4 receptor (human Muscarinic receptor subtype 4) (Homo sapiens, UniProt P08173); assay: hM4 receptor GTPγS binding; type: biochemical; conditions: CHO cell membranes expressing hM4, [35S]GTPγS binding
# T2 construct: purchased Perkin-Elmer RBHM4M; host or cells: Chinese hamster ovary cells (CHO) membranes
# T2 sequence (P08173 1-479): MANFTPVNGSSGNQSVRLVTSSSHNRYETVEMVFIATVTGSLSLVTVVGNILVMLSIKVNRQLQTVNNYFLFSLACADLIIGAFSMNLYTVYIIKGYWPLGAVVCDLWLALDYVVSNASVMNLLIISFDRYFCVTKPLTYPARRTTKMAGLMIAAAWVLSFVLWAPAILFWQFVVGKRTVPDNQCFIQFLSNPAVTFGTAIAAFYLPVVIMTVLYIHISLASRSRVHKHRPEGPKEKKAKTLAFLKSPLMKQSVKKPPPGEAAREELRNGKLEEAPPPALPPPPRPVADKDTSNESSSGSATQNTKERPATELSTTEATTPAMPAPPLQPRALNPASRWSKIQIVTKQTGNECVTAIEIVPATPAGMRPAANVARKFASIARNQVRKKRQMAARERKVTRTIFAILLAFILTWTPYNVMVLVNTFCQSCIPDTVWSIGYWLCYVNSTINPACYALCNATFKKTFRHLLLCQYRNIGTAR
# How it was run: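 Membranes from CHO cells expressing cloned human M4, with SPA beads, 20 µM GDP and 0.4 nM [35S]GTPγS in HEPES buffer pH 7.4, incubated 60 min at room temperature. Antagonism measured as reversal of 10 µM acetylcholine stimulation; 10-point, threefold dilution curves fitted sigmoidally to give EC50, IC50 and Emax.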
compound,measurement,setting,value
"CCOC(=O)N1CCC(C)(N2CCC(N3C(=O)Cc4cc(F)ccc43)CC2)C1 (single isomer, unassigned) [Example 80, ethyl 3-(4-(5-fluoro-2-oxoindolin-1-yl)piperidin-1-yl)-3-methylpyrrolidine-1-carboxylate]",EC50,[1]; read-out: hM2 EC50,3260 nM
same,EC50,[2]; read-out: hM4 EC50,> 21800 nM
"CCOC(=O)N1CCC(C)(N2CCC(N3C(=O)Cc4cc(F)c(C)cc43)CC2)C1 (single isomer, unassigned) [Example 81, ethyl 3-(4-(5-fluoro-6-methyl-2-oxoindolin-1-yl)piperidin-1-yl)-3-methylpyrrolidine-1-carboxylate]",EC50,[1]; read-out: hM2 EC50,1670 nM
same,EC50,[2]; read-out: hM4 EC50,7070 nM
"CCOC(=O)N1CCC(C)(N2CCC(N3C(=O)Cc4cc(F)c(C)cc43)CC2)C1 (single isomer, unassigned) [Example 82, ethyl 3-(4-(5-fluoro-6-methyl-2-oxoindolin-1-yl)piperidin-1-yl)-3-methylpyrrolidine-1-carboxylate]",EC50,[1]; read-out: hM2 EC50,270 nM
same,EC50,[2]; read-out: hM4 EC50,937 nM
"COC(=O)N1CCC(C)(N2CCC(N3C(=O)Cc4cc(F)c(C)cc43)CC2)C1 (single isomer, unassigned) [Example 83, methyl 3-(4-(5-fluoro-6-methyl-2-oxoindolin-1-yl)piperidin-1-yl)-3-methylpyrrolidine-1-carboxylate]",EC50,[1]; hM2 EC50 (nM),2840 nM
same,EC50,[2]; hM4 EC50 (nM),11300 nM
"COC(=O)N1CCC(C)(N2CCC(N3C(=O)Cc4cc(F)c(C)cc43)CC2)C1 (single isomer, unassigned) [Example 84, methyl 3-(4-(5-fluoro-6-methyl-2-oxoindolin-1-yl)piperidin-1-yl)-3-methylpyrrolidine-1-carboxylate]",EC50,[1]; hM2 EC50 (nM),684 nM
same,EC50,[2]; hM4 EC50 (nM),2540 nM
"CCOC(=O)N1CCC(C)(N2CCC(n3c(=O)[nH]c4ccccc43)CC2)C1 (stereo not drawn) [Example 1, ethyl 3-methyl-3-(4-(2-oxo-2,3-dihydro-1H-benzo[d]imidazol-1-yl)piperidin-1-yl)pyrrolidine-1-carboxylate]",EC50,[1]; read-out: hM2 EC50,498 nM
same,EC50,[2]; read-out: hM4 EC50,1700 nM
"CCNC(=O)N1CCC(C)(N2CCC(n3c(=O)[nH]c4ccccc43)CC2)C1 (stereo not drawn) [Example 5, N-ethyl-3-methyl-3-(4-(2-oxo-2,3-dihydro-1H-benzo[d]imidazol-1-yl)piperidin-1-yl)pyrrolidine-1-carboxamide]",EC50,[1]; read-out: hM2 EC50,5130 nM
same,EC50,[2]; read-out: hM4 EC50,> 16000 nM
"COC(=O)N1CCC(C)(N2CCC(n3c(=O)[nH]c4cc(F)ccc43)CC2)C1 (stereo not drawn) [Example 8, methyl 3-(4-(5-fluoro-2-oxo-2,3-dihydro-1H-benzo[d]imidazol-1-yl)piperidin-1-yl)-3-methylpyrrolidine-1-carboxylate]",EC50,[1]; read-out: hM2 EC50,1280 nM
same,EC50,[2]; read-out: hM4 EC50,5210 nM
"CC1(N2CCC(n3c(=O)[nH]c4cc(F)ccc43)CC2)CCN(C(=O)OCCF)C1 (stereo not drawn) [Example 10, 2-fluoroethyl 3-(4-(5-fluoro-2-oxo-2,3-dihydro-1H-benzo[d]imidazol-1-yl)piperidin-1-yl)-3-methylpyrrolidine-1-carboxylate]",EC50,[1]; read-out: hM2 EC50,2140 nM
same,EC50,[2]; read-out: hM4 EC50,5170 nM
"C#CCOC(=O)N1CCC(C)(N2CCC(n3c(=O)[nH]c4cc(F)ccc43)CC2)C1 (stereo not drawn) [Example 11, prop-2-ynyl 3-(4-(5-fluoro-2-oxo-2,3-dihydro-1H-benzo[d]imidazol-1-yl)piperidin-1-yl)-3-methylpyrrolidine-1-carboxylate]",EC50,[1]; read-out: hM2 EC50,149 nM
same,EC50,[2]; read-out: hM4 EC50,714 nM
"CCOC(=O)N1CCC(C)(N2CCC(n3c(=O)[nH]c4ccc(C)cc43)CC2)C1 (stereo not drawn) [Example 16, ethyl 3-methyl-3-(4-(6-methyl-2-oxo-2,3-dihydro-1H-benzo[d]imidazol-1-yl)piperidin-1-yl)pyrrolidine-1-carboxylate]",EC50,[1]; read-out: hM2 EC50,418 nM
same,EC50,[2]; read-out: hM4 EC50,1700 nM
"COC(=O)N1CCC(C)(N2CCC(n3c(=O)[nH]c4ccc(C)cc43)CC2)C1 (stereo not drawn) [Example 17, methyl 3-methyl-3-(4-(6-methyl-2-oxo-2,3-dihydro-1H-benzo[d]imidazol-1-yl)piperidin-1-yl)pyrrolidine-1-carboxylate]",EC50,[1]; read-out: hM2 EC50,709 nM
same,EC50,[2]; read-out: hM4 EC50,3150 nM

# From US20090221642A1, “MUSCARINIC RECEPTOR AGONISTS, COMPOSITIONS, METHODS OF TREATMENT THEREOF, AND PROCESSES FOR PREPARATION THEREOF-176” (AstraZeneca AB, priority 2008, published 2009)
